Test results published in PubChem BioAssay (NCI).
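Following 48 hours of exposure in 96-well plates, responses at five concentrations were used to interpolate endpoints linearly. The concentration for 50% growth inhibition is given as GI50. Definition used: TGI = concentration required for complete inhibition of growth.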

Assays:
Assay in all cases: NCI anticancer screen, dose series, 48 h
786-0 renal = tested on: 786-0 renal
A498 renal = tested on: A498 renal
A549 NSCLC = tested on: A549 NSCLC
ACHN renal = tested on: ACHN renal
BT-549 breast = tested on: BT-549 breast
CAKI-1 renal = tested on: CAKI-1 renal
CCRF-CEM leukemia = tested on: CCRF-CEM leukemia
COLO 205 colon = tested on: COLO 205 colon
DU-145 prostate = tested on: DU-145 prostate
EKVX NSCLC = tested on: EKVX NSCLC
HCC-2998 colon = tested on: HCC-2998 colon
HCT-116 colon = tested on: HCT-116 colon
HCT-15 colon = tested on: HCT-15 colon
HL-60(TB) leukemia = tested on: HL-60(TB) leukemia
HOP-62 NSCLC = tested on: HOP-62 NSCLC
HOP-92 NSCLC = tested on: HOP-92 NSCLC
HS 578T breast = tested on: HS 578T breast
HT29 colon = tested on: HT29 colon
IGROV1 ovarian = tested on: IGROV1 ovarian
K-562 leukemia = tested on: K-562 leukemia
KM12 colon = tested on: KM12 colon
LOX IMVI melanoma = tested on: LOX IMVI melanoma
M14 melanoma = tested on: M14 melanoma
MALME-3M melanoma = tested on: MALME-3M melanoma
MCF7 breast = tested on: MCF7 breast
MDA-MB-231 breast = tested on: MDA-MB-231 breast
MDA-MB-435 = tested on: MDA-MB-435
MDA-MB-468 breast = tested on: MDA-MB-468 breast
MOLT-4 leukemia = tested on: MOLT-4 leukemia
NCI-H226 lung = tested on: NCI-H226 lung
NCI-H23 lung = tested on: NCI-H23 lung
NCI-H460 lung = tested on: NCI-H460 lung
NCI-H522 lung = tested on: NCI-H522 lung
NCI/ADR-RES ovarian = tested on: NCI/ADR-RES ovarian
OVCAR-3 ovarian = tested on: OVCAR-3 ovarian
OVCAR-4 ovarian = tested on: OVCAR-4 ovarian
OVCAR-5 ovarian = tested on: OVCAR-5 ovarian
OVCAR-8 ovarian = tested on: OVCAR-8 ovarian
PC-3 prostate = tested on: PC-3 prostate
RPMI-8226 leukemia = tested on: RPMI-8226 leukemia
RXF 393 renal = tested on: RXF 393 renal
SF-268 CNS = tested on: SF-268 CNS
SF-295 CNS = tested on: SF-295 CNS
SF-539 CNS = tested on: SF-539 CNS
SK-MEL-2 melanoma = tested on: SK-MEL-2 melanoma
SK-MEL-28 melanoma = tested on: SK-MEL-28 melanoma
SK-MEL-5 melanoma = tested on: SK-MEL-5 melanoma
SK-OV-3 ovarian = tested on: SK-OV-3 ovarian
SN12C renal = tested on: SN12C renal
SNB-19 CNS = tested on: SNB-19 CNS
SNB-75 CNS = tested on: SNB-75 CNS
SR leukemia = tested on: SR leukemia
SW-620 colon = tested on: SW-620 colon
T-47D breast = tested on: T-47D breast
TK-10 renal = tested on: TK-10 renal
U251 CNS = tested on: U251 CNS
UACC-257 melanoma = tested on: UACC-257 melanoma
UACC-62 melanoma = tested on: UACC-62 melanoma
UO-31 renal = tested on: UO-31 renal

CCN1CCN(c2ccc(NC(=O)Nc3ccc4c(c3F)CCN4c3ccnc(C(=O)NC)c3)cc2C(F)(F)F)CC1
GI50 (786-0 renal): 5.77 µM
TGI (786-0 renal): 13.7 µM
GI50 (A498 renal): 5.77 µM
TGI (A498 renal): 10.9 µM
GI50 (A549 NSCLC): 6.75 µM
TGI (A549 NSCLC): 13.5 µM
GI50 (ACHN renal): 5.9 µM
TGI (ACHN renal): 10.9 µM
GI50 (BT-549 breast): 6.92 µM
TGI (BT-549 breast): 13.4 µM
GI50 (CAKI-1 renal): 6.56 µM
TGI (CAKI-1 renal): 12 µM
GI50 (CCRF-CEM leukemia): 6.25 µM
TGI (CCRF-CEM leukemia): 24.4 µM
GI50 (COLO 205 colon): 10.7 µM
TGI (COLO 205 colon): > 37.3 µM
GI50 (DU-145 prostate): 6.45 µM
TGI (DU-145 prostate): 11.9 µM
GI50 (EKVX NSCLC): 6.71 µM
TGI (EKVX NSCLC): 12.6 µM
GI50 (HCC-2998 colon): 6.44 µM
TGI (HCC-2998 colon): 12 µM
GI50 (HCT-116 colon): 6.98 µM
TGI (HCT-116 colon): 16.5 µM
GI50 (HCT-15 colon): 5.54 µM
TGI (HCT-15 colon): 12.1 µM
GI50 (HL-60(TB) leukemia): 6.65 µM
TGI (HL-60(TB) leukemia): 15.7 µM
GI50 (HOP-62 NSCLC): 5.34 µM
TGI (HOP-62 NSCLC): 10.9 µM
GI50 (HOP-92 NSCLC): 5.87 µM
TGI (HOP-92 NSCLC): 12.5 µM
GI50 (HS 578T breast): 4.9 µM
TGI (HS 578T breast): 13.2 µM
GI50 (HT29 colon): 3.06 µM
TGI (HT29 colon): 9.53 µM
GI50 (IGROV1 ovarian): 6.66 µM
TGI (IGROV1 ovarian): 12.2 µM
GI50 (K-562 leukemia): 7.43 µM
TGI (K-562 leukemia): > 37.3 µM
GI50 (KM12 colon): 0.341 µM
TGI (KM12 colon): 6.62 µM
GI50 (LOX IMVI melanoma): 5.54 µM
TGI (LOX IMVI melanoma): 10.7 µM
GI50 (M14 melanoma): 6.8 µM
TGI (M14 melanoma): 14.5 µM
GI50 (MALME-3M melanoma): 5.49 µM
TGI (MALME-3M melanoma): 10.5 µM
GI50 (MCF7 breast): 5.93 µM
TGI (MCF7 breast): 13.1 µM
GI50 (MDA-MB-231 breast): 6.26 µM
TGI (MDA-MB-231 breast): 11.5 µM
GI50 (MDA-MB-435): 5.09 µM
TGI (MDA-MB-435): 10.4 µM
GI50 (MDA-MB-468 breast): 6.36 µM
TGI (MDA-MB-468 breast): 12.7 µM
GI50 (MOLT-4 leukemia): 2.09 µM
TGI (MOLT-4 leukemia): 16.3 µM
GI50 (NCI-H226 lung): 6.58 µM
TGI (NCI-H226 lung): 14.7 µM
GI50 (NCI-H23 lung): 5.97 µM
TGI (NCI-H23 lung): 12 µM
GI50 (NCI-H460 lung): 6.04 µM
TGI (NCI-H460 lung): 12.3 µM
GI50 (NCI-H522 lung): 7.1 µM
TGI (NCI-H522 lung): 13.8 µM
GI50 (NCI/ADR-RES ovarian): 6.87 µM
TGI (NCI/ADR-RES ovarian): 16 µM
GI50 (OVCAR-3 ovarian): 6.02 µM
TGI (OVCAR-3 ovarian): 11.6 µM
GI50 (OVCAR-4 ovarian): 6.3 µM
TGI (OVCAR-4 ovarian): 13.7 µM
GI50 (OVCAR-5 ovarian): 5.82 µM
TGI (OVCAR-5 ovarian): 10.8 µM
GI50 (OVCAR-8 ovarian): 7.08 µM
TGI (OVCAR-8 ovarian): 15.6 µM
GI50 (PC-3 prostate): 7.39 µM
TGI (PC-3 prostate): 18.9 µM
GI50 (RPMI-8226 leukemia): 7.73 µM
TGI (RPMI-8226 leukemia): 30.9 µM
GI50 (RXF 393 renal): 1.35 µM
TGI (RXF 393 renal): 6.03 µM
GI50 (SF-268 CNS): 6.13 µM
TGI (SF-268 CNS): 14 µM
GI50 (SF-295 CNS): 3.52 µM
TGI (SF-295 CNS): 8.23 µM
GI50 (SF-539 CNS): 2.35 µM
TGI (SF-539 CNS): 7.24 µM
GI50 (SK-MEL-2 melanoma): > 37.3 µM
TGI (SK-MEL-2 melanoma): > 37.3 µM
GI50 (SK-MEL-28 melanoma): 5.65 µM
TGI (SK-MEL-28 melanoma): 10.8 µM
GI50 (SK-MEL-5 melanoma): 6.1 µM
TGI (SK-MEL-5 melanoma): 11.3 µM
GI50 (SK-OV-3 ovarian): 5.84 µM
TGI (SK-OV-3 ovarian): 11.6 µM
GI50 (SN12C renal): 5.88 µM
TGI (SN12C renal): 11.2 µM
GI50 (SNB-19 CNS): 5.95 µM
TGI (SNB-19 CNS): 11.2 µM
GI50 (SNB-75 CNS): 0.585 µM
TGI (SNB-75 CNS): 6.84 µM
GI50 (SR leukemia): 5.44 µM
TGI (SR leukemia): 18.7 µM
GI50 (SW-620 colon): 5.07 µM
TGI (SW-620 colon): 11.1 µM
GI50 (T-47D breast): > 37.3 µM
TGI (T-47D breast): > 37.3 µM
GI50 (TK-10 renal): 7.52 µM
TGI (TK-10 renal): 13.1 µM
GI50 (U251 CNS): 4.8 µM
TGI (U251 CNS): 9.97 µM
GI50 (UACC-257 melanoma): 6.27 µM
TGI (UACC-257 melanoma): 12 µM
GI50 (UACC-62 melanoma): 6.18 µM
TGI (UACC-62 melanoma): 11.3 µM
GI50 (UO-31 renal): 5.43 µM
TGI (UO-31 renal): 10.3 µM
